# Reference: US20160324770A1, “INTRATHECAL ADMINISTRATION, PREFERABLY INTRAVENTRICULAR, OF MTOR INHIBITORS FOR THE THERAPY OF SOME NEURODEGENERATIVE, NEUROINFLAMMATORY AND NEURO-ONCOLOGIC DISEASES” (priority 2012, published 2016)
# Where two headings read alike, the source gives them in different places.
# Columns and labels:
# [1] = system: Subependymal Giant Cell Astrocytomas (SEGAs); details: systemic administration, cited from earlier work
# [2] = Blood and brain concentrations (LC-MS) in mice treated intraperitoneally for a week with graduated doses; assay type: in vivo, CD1 mice; details: for concentration at 1 week: CD1, mouse
# Description: A quantitative analysis of everolimus in blood and tissue samples was performed with the isotopic dilution method using the LC-MS technique. The chromatographic system was the following: Agilent 1290 Infinity HPLC equipped with a binary pump and HiP Auto Sampler model G4226A. The injection volume was 2 μL, the analytical column used was a Phenomenex Kinetics PFP UHPLC column (Phenomenex, Milan, Italy) […], 1.7 μm, 100 Å, temperature controlled at 55° C. A gradient elution was performed using as solvent A: water with 5 mM ammonium formiate, solvent B: methanol with 0.1% formic acid. The elution profile was the following: solvent A 30%/solvent B 70% for 3 minutes, solvent A 1%/solvent B 99% from 3 to 6 minutes, at a flow velocity of 0.25 mL/min. This setup enabled an elution time of 2.5 minutes. Every injection was preceded by a cycle of washing the injector system with methanol.
# Mass spectrometry was conducted using a Q-TOF MS detector model G6540A (Agilent, Germany) equipped with a Dual AJS ESI (electrospray ionization interface) system. The instrument parameters were the following: sheath gas flow: […], sheath gas temperature: 300° C., gas flow: 6 L/min, gas temperature: 300° C., nebulizer pressure: 35 psi, ion spray voltage: 5500 V.
# Both everolimus and the isotopic internal standard were detected as ammonium adducts in the positive ion mode.
# Everolimus was extracted from whole blood in 1 mL of a methanol solution containing 10% ammonium acetate in order to enable precipitation of most of the serum protein.
# The internal standard used was isotopic 4d-2C^13-everolimus added to the extraction solution at a concentration of 200 ng/mL.
# The blood samples were freeze-dried and subsequently extracted. The extraction process was carried out in a sonication bath for approx. 10 minutes to ensure complete haemolysis and release of the drug from the cell material.
# The samples were centrifuged (10 minutes, 4000 rpm, 10° C.) and the supernatant was then separated from the pellet.
# The solutions thus obtained were then purified by means of HybridSPE®-Phospholipid solid-phase extraction cartridges with a total volume of 1 ml (Sigma Aldrich, Milan) to eliminate the excess lipid material potentially present. The process was preliminarily validated both for everolimus and for the internal standard in solution and in matrices, providing a yield >98% w/v.
# The process of extraction from brain samples, divided into right and left hemispheres, was similar to the one for whole blood. The tissue samples were weighed and subsequently freeze-dried. After freeze-drying the samples were finely chopped to facilitate subsequent extraction. 1 mL of the methanol solution was then added to 1% v/v of ammonium formiate with 200 ng/mL of internal standard. The samples were then subjected to 10 minutes of sonication and vortexed to ensure complete extraction of the drug. Then followed centrifugation (10 minutes, 4000 rpm, 10° C.) and the supernatant was separated from the pellet. As previously described, the solutions were purified by means of HybridSPE®-Phospholipid solid-phase extraction cartridges with a total volume of 1 ml (Sigma Aldrich, Milan) to eliminate the excess lipid material. The samples were then immediately submitted to LC-MS analysis.
structure (smiles),measurement,setting,value
CO[C@H]1C[C@@H]2CC[C@@H](C)[C@@](O)(O2)C(=O)C(=O)N2CCCC[C@H]2C(=O)O[C@H]([C@H](C)C[C@@H]2CC[C@@H](OCCO)[C@H](OC)C2)CC(=O)[C@H](C)/C=C(\C)[C@@H](O)[C@@H](OC)C(=O)[C@H](C)C[C@H](C)/C=C/C=C/C=C/1C [everolimus],Study endpoint (volumetric reduction in SEGAs),[1]; 28 patients affected by TS,reached the endpoint
same,Severity grade of adverse reactions,"[1]; many adverse reactions, most of infectious origin",1-3
same,concentration at 1 week,"[2]; brain, intraperitoneal, 0.6125 mg/Kg, heading: Brain conc 1, one week, lowest of 3 dosages (C=0.6125 mg/Kg)",46 ng/g
same,Level in the blood,[2]; all 3 dosages of the one-week study,did not reach measurable levels in the blood
same,concentration at 1 week,"[2]; female, brain, left hemisphere (sx), ip, females, 0.6125 mg/kg i.p. for a week, normalized to weight of a hemisphere, read-out: Brain concentration, hemisphere sx (converted)",48 ng/g
same,concentration at 1 week,"[2]; female, brain, left hemisphere (sx), ip, females, 1.25 mg/kg i.p. for a week, normalized to weight of a hemisphere, read-out: Brain concentration, hemisphere sx (converted)",80 ng/g
same,concentration at 1 week,"[2]; female, brain, left hemisphere (sx), ip, females, 2.5 mg/kg i.p. for a week, normalized to weight of a hemisphere, read-out: Brain concentration, hemisphere sx (converted)",152 ng/g
same,concentration at 1 week,"[2]; female, brain, right hemisphere (dx), ip, females, 0.6125 mg/kg i.p. for a week, normalized to weight of a hemisphere, read-out: Brain concentration, hemisphere dx (converted)",44 ng/g
same,concentration at 1 week,"[2]; female, brain, right hemisphere (dx), ip, females, 1.25 mg/kg i.p. for a week, normalized to weight of a hemisphere, read-out: Brain concentration, hemisphere dx (converted)",72 ng/g
same,concentration at 1 week,"[2]; female, brain, right hemisphere (dx), ip, females, 2.5 mg/kg i.p. for a week, normalized to weight of a hemisphere, read-out: Brain concentration, hemisphere dx (converted)",132 ng/g
same,concentration at 1 week,"[2]; female, whole blood, ip, females, 0.6125 mg/kg intraperitoneally for a week, n = 2, read-out: Blood concentration",15 ± 3 ng/mL
same,concentration at 1 week,"[2]; female, whole blood, ip, females, 1.25 mg/kg intraperitoneally for a week, n = 2, read-out: Blood concentration",25 ± 5 ng/mL
same,concentration at 1 week,"[2]; female, whole blood, ip, females, 2.5 mg/kg intraperitoneally for a week, n = 2, read-out: Blood concentration",46 ± 4 ng/mL
same,concentration at 1 week,"[2]; male, brain, left hemisphere (sx), ip, males, 0.6125 mg/kg i.p. for a week, normalized to weight of a hemisphere, read-out: Brain concentration, hemisphere sx (converted)",36 ng/g
same,concentration at 1 week,"[2]; male, brain, left hemisphere (sx), ip, males, 1.25 mg/kg i.p. for a week, normalized to weight of a hemisphere, read-out: Brain concentration, hemisphere sx (converted)",100 ng/g
same,concentration at 1 week,"[2]; male, brain, left hemisphere (sx), ip, males, 2.5 mg/kg i.p. for a week, normalized to weight of a hemisphere, read-out: Brain concentration, hemisphere sx (converted)",176 ng/g
same,concentration at 1 week,"[2]; male, brain, right hemisphere (dx), ip, males, 0.6125 mg/kg i.p. for a week, normalized to weight of a hemisphere, read-out: Brain concentration, hemisphere dx (converted)",56 ng/g
same,concentration at 1 week,"[2]; male, brain, right hemisphere (dx), ip, males, 1.25 mg/kg i.p. for a week, normalized to weight of a hemisphere, read-out: Brain concentration, hemisphere dx (converted)",148 ng/g
same,concentration at 1 week,"[2]; male, brain, right hemisphere (dx), ip, males, 2.5 mg/kg i.p. for a week, normalized to weight of a hemisphere, read-out: Brain concentration, hemisphere dx (converted)",208 ng/g
same,concentration at 1 week,"[2]; male, whole blood, ip, males, 0.6125 mg/kg intraperitoneally for a week, n = 2, read-out: Blood concentration",16 ± 4 ng/mL
same,concentration at 1 week,"[2]; male, whole blood, ip, males, 1.25 mg/kg intraperitoneally for a week, n = 2, read-out: Blood concentration",42 ± 4 ng/mL
same,concentration at 1 week,"[2]; male, whole blood, ip, males, 2.5 mg/kg intraperitoneally for a week, n = 2, read-out: Blood concentration",59 ± 3 ng/mL
same,Blood concentration (LC-MS),[2]; mice treated with intraperitoneal administration,in the therapeutic range
